Test results: ChEMBL document CHEMBL4011644, “3-Hydroxy-N'-arylidenepropanehydrazonamides with Halo-Substituted Phenanthrene Scaffolds Cure P. berghei Infected Mice When Administered Perorally” (J Med Chem, 2017)
Activity calls are given as the source filed them. The calls are words filed in the database; no cut-off is given here.

Legend:
[1] = system: HepG2; experiment: Cytotoxicity against human HepG2 cells by CellTiterGlo assay; assay type: cell-based
[2] = system: Mus musculus; experiment: Toxicity in NMRI mouse infected with Plasmodium berghei assessed as diarrhea at 50 mg/kg, ip administered at 4, 24, 48, 72 hrs post infection; assay type: organism-based; conditions: in vivo
[3] = system: Plasmodium berghei; experiment: Antiplasmodial activity against Plasmodium berghei infected in NMRI mouse assessed as parasite-free mouse at 50 mg/kg, ip administered at 4, 24, 48, 72 hrs post infection measured on day 30 by Peter's test; assay type: functional, organism-based
[4] = system: Plasmodium berghei; experiment: Antiplasmodial activity against Plasmodium berghei infected in NMRI mouse assessed as reduction in parasitemia at 50 mg/kg, ip administered at 4, 24, 48, 72 hrs post infection measured on day 4 post infection by Peter's test relative to control; assay type: functional; parameters: scale not given: the % may be the effect or the level left
[5] = system: Plasmodium falciparum; experiment: Antiplasmodial activity against chloroquine-sensitive asexual blood stages of Plasmodium falciparum 3D7 after 72 hrs by HRP2-based ELISA; assay type: functional; conditions: 3D7, 72 h
[6] = system: Plasmodium berghei; experiment: Antiplasmodial activity against Plasmodium berghei infected in NMRI mouse assessed as mean survival time at 50 mg/kg, po administered at 4, 24, 48, 72 hrs post infection by Peter's test (reference value: 6 to 7 day); assay type: functional
[7] = system: Plasmodium berghei; experiment: Antiplasmodial activity against Plasmodium berghei infected in NMRI mouse assessed as reduction in parasitemia at 50 mg/kg, po administered at 4, 24, 48, 72 hrs post infection measured on day 4 post infection by Peter's test relative to control; assay type: functional; parameters: scale not given: the % may be the effect or the level left
[8] = system: Plasmodium berghei; experiment: Antiplasmodial activity against Plasmodium berghei infected in NMRI mouse assessed as parasite-free mouse at 50 mg/kg, po administered at 4, 24, 48, 72 hrs post infection measured on day 30 by Peter's test; assay type: functional, organism-based
[9] = system: Mus musculus; experiment: Toxicity in NMRI mouse infected with Plasmodium berghei assessed as reduction in physical activity at 50 mg/kg, ip administered at 4, 24, 48, 72 hrs post infection; assay type: organism-based; conditions: in vivo
[10] = system: Plasmodium berghei; experiment: Antiplasmodial activity against Plasmodium berghei infected in NMRI mouse assessed as mean survival time at 50 mg/kg, ip administered at 4, 24, 48, 72 hrs post infection by Peter's test (reference value: 6 to 7 day); assay type: functional
[11] = Selectivity index, ratio of IC50 for human HepG2 cells to IC50 for chloroquine-sensitive asexual blood stages of Plasmodium falciparum 3D7; assay type: toxicity; conditions: read-out: Ratio IC50
[12] = system: Plasmodium falciparum; experiment: Antiplasmodial activity against multidrug-resistant asexual blood stages of Plasmodium falciparum Dd2 after 72 hrs by HRP2-based ELISA; assay type: functional; conditions: Dd2, 72 h
[13] = system: Plasmodium berghei; experiment: Antiplasmodial activity against Plasmodium berghei infected in NMRI mouse assessed as mean survival time at 30 mg/kg, po administered at 4, 24, 48, 72 hrs post infection by Peter's test (reference value: 6 to 7 day); assay type: functional
[14] = system: Plasmodium berghei; experiment: Antiplasmodial activity against Plasmodium berghei infected in NMRI mouse assessed as reduction in parasitemia at 30 mg/kg, po administered at 4, 24, 48, 72 hrs post infection measured on day 4 by Peter's test relative to control; assay type: functional; parameters: scale not given: the % may be the effect or the level left
[15] = system: Plasmodium berghei; experiment: […] activity against GFP-fused Plasmodium berghei liver stage parasites infected in human HepG2-A16-CD81-EGFP cells after 48 hrs by luciferase reporter gene assay; assay type: functional
[16] = system: Plasmodium falciparum; experiment: Gametocytocidal activity against transgenic GFP-fused Plasmodium falciparum NF54 early stage gametocytes after 72 hrs by Mitotracker Red CMH2XRos staining based confocal microscopic method; assay type: functional; conditions: NF54, 72 h
[17] = system: Plasmodium falciparum; experiment: Gametocytocidal activity against transgenic GFP-fused Plasmodium falciparum NF54 […] stage gametocytes after 72 hrs by Mitotracker Red CMH2XRos staining based confocal microscopic method; assay type: functional; conditions: NF54, 72 h
[18] = system: Mus musculus; experiment: Toxicity in NMRI mouse infected with Plasmodium berghei assessed as overt toxicity at 50 mg/kg, ip administered at 4, 24, 48, 72 hrs post infection; assay type: organism-based; conditions: in vivo
[19] = system: Plasmodium berghei; experiment: Antiplasmodial activity against Plasmodium berghei infected in NMRI mouse assessed as parasite-free mouse at 30 mg/kg, po administered at 4, 24, 48, 72 hrs post infection measured on day 30 by Peter's test; assay type: functional, organism-based
[20] = system: Plasmodium falciparum; experiment: Effect on female gamete formation in transgenic GFP-fused Plasmodium falciparum NF54 mature stage-5 gametocytes at 1 uM after 72 hrs under reduced oxygen tension by Mitotracker Red CMH2XRos staining based confocal microscopic method; assay type: functional
[21] = system: Plasmodium berghei; experiment: Antiplasmodial activity against Plasmodium berghei infected in NMRI mouse assessed as parasite free mouse at 3 mg/kg, po administered at 4, 24, 48, 72 hrs post infection measured on day 4 by Peter's test; assay type: functional, organism-based
[22] = system: Plasmodium berghei; experiment: Antiplasmodial activity against Plasmodium berghei infected in NMRI mouse assessed as mean survival time at 10 mg/kg, po administered at 4, 24, 48, 72 hrs post infection measured on day 4 by Peter's test (reference value: 6 to 7 day); assay type: functional
[23] = system: Plasmodium falciparum; experiment: Effect on male gamete formation in transgenic GFP-fused Plasmodium falciparum NF54 mature stage-5 gametocytes at 1 uM after 72 hrs under reduced oxygen tension by Mitotracker Red CMH2XRos staining based confocal microscopic method; assay type: functional
[24] = system: Plasmodium berghei; experiment: Antiplasmodial activity against Plasmodium berghei infected in NMRI mouse assessed as reduction in parasitemia at 3 mg/kg, po administered at 4, 24, 48, 72 hrs post infection measured on day 4 by Peter's test relative to control; assay type: functional; parameters: scale not given: the % may be the effect or the level left
[25] = system: Plasmodium berghei; experiment: Antiplasmodial activity against Plasmodium berghei infected in NMRI mouse assessed as reduction in parasitemia at 10 mg/kg, po administered at 4, 24, 48, 72 hrs post infection measured on day 4 by Peter's test relative to control; assay type: functional; parameters: scale not given: the % may be the effect or the level left
[26] = target: Voltage-gated inwardly rectifying potassium channel KCNH2 (Homo sapiens, UniProt Q12809); experiment: Inhibition of human ERG by fluorescence polarization assay
[27] = system: Plasmodium berghei; experiment: Antiplasmodial activity against Plasmodium berghei infected in NMRI mouse assessed as parasite free mouse at 10 mg/kg, po administered at 4, 24, 48, 72 hrs post infection measured on day 4 by Peter's test; assay type: functional, organism-based

Chain of Voltage-gated inwardly rectifying potassium channel KCNH2 (Q12809 whole entry): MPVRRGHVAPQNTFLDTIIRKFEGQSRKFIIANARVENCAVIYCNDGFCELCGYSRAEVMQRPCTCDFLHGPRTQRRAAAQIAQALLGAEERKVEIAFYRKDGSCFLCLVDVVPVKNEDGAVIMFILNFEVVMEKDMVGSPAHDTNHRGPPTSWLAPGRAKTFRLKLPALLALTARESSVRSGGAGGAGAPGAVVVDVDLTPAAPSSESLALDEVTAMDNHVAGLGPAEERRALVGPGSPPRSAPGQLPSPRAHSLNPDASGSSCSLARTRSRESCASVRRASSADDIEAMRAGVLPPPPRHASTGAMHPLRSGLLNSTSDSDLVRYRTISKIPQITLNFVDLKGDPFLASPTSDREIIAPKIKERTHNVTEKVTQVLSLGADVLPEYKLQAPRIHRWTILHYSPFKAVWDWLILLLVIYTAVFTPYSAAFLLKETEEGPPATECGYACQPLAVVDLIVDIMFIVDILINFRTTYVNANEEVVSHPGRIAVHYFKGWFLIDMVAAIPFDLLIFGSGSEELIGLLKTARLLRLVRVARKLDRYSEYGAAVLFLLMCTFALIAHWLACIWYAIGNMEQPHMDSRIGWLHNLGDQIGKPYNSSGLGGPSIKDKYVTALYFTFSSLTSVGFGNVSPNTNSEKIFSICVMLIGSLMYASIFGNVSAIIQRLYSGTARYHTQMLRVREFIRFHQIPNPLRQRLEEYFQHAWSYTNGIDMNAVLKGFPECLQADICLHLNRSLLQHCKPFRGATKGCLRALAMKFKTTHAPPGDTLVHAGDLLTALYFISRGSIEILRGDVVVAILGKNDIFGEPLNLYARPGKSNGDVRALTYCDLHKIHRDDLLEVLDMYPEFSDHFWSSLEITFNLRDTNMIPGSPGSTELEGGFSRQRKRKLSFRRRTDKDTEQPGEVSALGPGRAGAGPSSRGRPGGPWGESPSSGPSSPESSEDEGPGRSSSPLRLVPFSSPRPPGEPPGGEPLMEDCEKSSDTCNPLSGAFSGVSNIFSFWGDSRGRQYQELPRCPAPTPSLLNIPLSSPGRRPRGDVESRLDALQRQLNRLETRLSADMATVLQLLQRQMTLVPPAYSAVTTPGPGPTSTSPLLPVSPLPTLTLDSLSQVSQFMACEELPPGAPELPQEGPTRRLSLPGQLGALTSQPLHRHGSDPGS

SMILES	IC50 [1] [µM]	Activity [2]	Activity [3]	Activity [4] [%]	IC50 [5] [µM]	MST [6] [days]	Activity [7] [%]	Activity [8]	Activity [9]	MST [10] [days]	selectivity ratio [11]	IC50 [12] [µM]	other results
CCN(CC)Cc1cc(/C=N/N=C(\N)CC(O)c2cc3ccccc3c3ccccc23)cc(CN(CC)CC)c1O (configuration not stated)	14.3	Toxic	inactive	99.8	0.0015	11	96.7	inactive	Toxic	11	9530	0.0033	
N/C(CC(O)c1cc2ccccc2c2ccccc12)=N\N=C\C1CCCCC1 (configuration not stated)	27.4				0.33						83	0.72	
CN(C)Cc1cc(/C=N/N=C(\N)CC(O)c2cc3ccccc3c3ccccc23)ccc1O (configuration not stated)	16.7	Non-Toxic	inactive	99.8	0.0025	24.7	99.8	inactive	Non-Toxic	22	6680	0.00097	
O[C@@H](c1cc(C(F)(F)F)nc2c(C(F)(F)F)cccc12)[C@H]1CCCCN1 [(S,R)-MEFLOQUINE]													MST [13]: 29 days; Activity [14]: 99.9%
CCN(CC)Cc1cc(/C=N/N=C(\N)CC(O)c2cc3c(Cl)cc(Cl)cc3c3cc(C(F)(F)F)ccc23)ccc1O (configuration not stated)	42.8				0.0069	23	99.8	inactive			6200	0.0138	IC50 [15]: 19.1 µM; IC50 [16]: 0.453 µM; IC50 [17]: 0.345 µM; Activity [18]: Non-Toxic
CCN(CC)CCCC(C)Nc1ccnc2cc(Cl)ccc12 (configuration not stated) [CHLOROQUINE]													Activity [19]: inactive
CN1CCN(Cc2cc(/C=N/N=C(\N)CC(O)c3cc4ccccc4c4ccccc34)ccc2O)CC1 (configuration not stated)	8.4	Non-Toxic	inactive	97.6	0.0052	16	98	inactive	Non-Toxic	18	1620	0.0092	
C[C@H]1[C@H](OC(=O)CCC(=O)O)O[C@@H]2O[C@@]3(C)CC[C@H]4[C@H](C)CC[C@@H]1[C@@]24OO3 [ARTESUNATE]													MST [13]: 10 days; Activity [14]: 99%; Activity [19]: inactive
CCN(CC)Cc1cc(/C=N/N=C(\N)CC(O)c2cc3ccccc3c3ccccc23)ccc1O (configuration not stated)	14.3	Non-Toxic		99.7	0.00097	28.2	99.9	inactive	Non-Toxic	30	14700	0.0034	
CCN(CC)Cc1cc(/C=N/N=C(\N)CC(O)c2cc3c(F)cc(F)cc3c3cc(C(F)(F)F)ccc23)ccc1O (configuration not stated)	13.4			99.8	0.0039	29.7	99.9			30	3440	0.0061	Activity [20]: inactive; Activity [21]: inactive; MST [22]: 10 days; Activity [23]: inactive; Activity [24]: <40%; IC50 [15]: 5.2 µM; IC50 [16]: 0.218 µM; MST [13]: 28.3 days; Activity [25]: 99.4%; IC50 [17]: 0.11 µM; IC50 [26]: 0.39 µM; Activity [14]: 99.9%; Activity [27]: inactive; Activity [18]: Non-Toxic; Activity [19]: inactive
CCCCC(/C=N/N=C(\N)CC(O)c1cc2ccccc2c2ccccc12)CCCC (configuration not stated)	7.6				0.06						127	0.092	
N/C(CC(O)c1cc2ccccc2c2ccccc12)=N\N=C\c1ccc(F)cc1 (configuration not stated)	> 10										> 1040	0.00114	
N/C(CC(O)c1cc2c(Cl)cc(Cl)cc2c2cc(C(F)(F)F)ccc12)=N\N=C\c1ccc(F)cc1 (configuration not stated)	43.8			99.9	0.0018	25.3	99.9			25.3	24300	0.0025	Activity [20]: inactive; Activity [21]: inactive; MST [22]: 5 days; Activity [23]: inactive; Activity [24]: <40%; IC50 [15]: 13 µM; IC50 [16]: 0.031 µM; MST [13]: 13.7 days; Activity [25]: 80%; IC50 [17]: 0.036 µM; Activity [14]: 99.4%; Activity [27]: inactive; Activity [18]: Non-Toxic; Activity [19]: inactive
N/C(CC(O)c1cc2ccccc2c2ccccc12)=N\N=C\c1ccc(O)c(CN2CCOCC2)c1 (configuration not stated)	3.7	Non-Toxic	inactive	91.3	0.029	9.7	89.7	inactive	Non-Toxic	14	128	0.044	
O=C1C(O)=C([C@H]2CC[C@H](c3ccc(Cl)cc3)CC2)C(=O)c2ccccc21 [ATOVAQUONE]													IC50 [15]: 0.00026 µM
CCCCN(CCCC)CC(O)c1cc(Cl)cc2c1-c1ccc(Cl)cc1/C2=C/c1ccc(Cl)cc1 (configuration not stated) [LUMEFANTRINE]													IC50 [26]: 0.377 µM
CCN(CC)Cc1cccc(/C=N/N=C(\N)CC(O)c2cc3ccccc3c3ccccc23)c1 (configuration not stated)	16.6				0.025			inactive			664	0.036	
CCCCC(CCCC)=N/N=C(\N)CC(O)c1cc2ccccc2c2ccccc12 (configuration not stated)	8.6	Non-Toxic	inactive	64.8	0.0083		<40	inactive	Non-Toxic	7	1040	0.012	
N/C(CC(O)c1cc2ccccc2c2ccccc12)=N\N=C1CCCCCC1 (configuration not stated)	25.4				0.18			inactive			139	0.14	
N/C(CC(O)c1cc2ccccc2c2ccccc12)=N\N=C\c1ccc(O)c(CN2CCCCC2)c1 (configuration not stated)	8.4	Non-Toxic	inactive	98.7	0.0029	10.3	99	inactive	Non-Toxic	16.7	2900	0.0054	
